Test results as given in patent US7576198B1, “Integrase inhibitors containing aromatic heterocycle derivatives” (Shionogi & Co., Ltd., priority 1999, dated 2009).

target: HIV-1 integrase (Human immunodeficiency virus type 1 group M subtype B, UniProt P04585); experiment: HIV-1 integrase inhibition assay (microtiter plate, substrate DNA/target DNA, OD 405 nm); format: biochemical; conditions: HIV-1 integrase; concentration of the compound at percent inhibition 50%; OD 405 nm
Method: The inhibitory effects of the compounds of the present invention for HIV-1 integrase have been determined by the assay described below.
(1) Preparation of DNA solutions.
Substrate DNA and target DNA, which sequences were indicated below, were synthesized by Amersham Pharmacia Biotech and dissolved in KTE buffer (composition: 100 mM KCl, 1 mM EDTA, 10 mM Tris-HCl (pH 7.6)) at concentration of 2 pmol/μl and 5 pmol/μl, respectively. The DNA solutions were annealed with each complement by slowly cooling after heating.
(Substrate DNA) • 5′-Biotin-ACCCTTTTAGTCAGTGTGGAAAATCTCTAGCAGT-3′ • 3-GAAAATCAGTCACACCTTTTAGAGATCGTCA-5′
5′-TGACCAAGGGCTAATTCACT-Dig-3′
3′-Dig-ACTGGTTCCCGATTAAGTGA-5′
(2) Calculations of the percent inhibitions (the IC50 values of test compounds)
Streptavidin, obtained from Vector Laboratories, was dissolved in 0.1 M carbonate buffer (composition: 90 mM Na2CO3, 10 mM NaHCO3) at concentration of 40 μg/ml. After coating each well of microtiter plates (obtained from NUNC) with 50 μl of the above solution at 4° C. over night, each well was washed twice with PBS (composition: […], 0.27 mM KCl, 0.43 mM Na2HPO4, 0.14 mM KH2PO4) and blocked with 300 μl of 1% skim milk in PBS for 30 min. Additionally, each well was washed twice with PBS and added 50 μl of substrate DNA solution (2 pmol/μl). The microtiter plates were kept at room temperature for 30 min. Then, each well was washed twice with PBS and once with H2O.
Subsequently, in the each well prepared above were added 45 μl of the reaction buffer prepared from 12 μl of the buffer (composition: 150 mM MOPS (pH 7.2), 75 mM MnCl2, 50 mM 2-mercaptoethanol, 25% glycerol, 500 μg/ml bovine serum albumin-fraction V), 1 μl of target DNA (5 pmol/μl), and 32 μl of the distilled water. Additionally, 6 μl of either a test compound in DMSO or DMSO for positive control (PC) was mixed with the above reaction buffer, then 9 μl of an integrase solution (30 pmol) was added and mixed well. In the well of negative control (NC) was added 9 μl of the integrase dilution buffer (composition: 20 mM MOPS (pH7.2), 400 mM potassium glutamate, 1 mM EDTA, 0.1% NP-40, 20% glycerol, 1 mM DTT, 4M urea).
The microtiter plates were incubated at 30° C. for 1 hour. The reaction solution was removed and each well was washed twice with PBS. Subsequently, each well of the microtiter plates was filled with 100 μl of anti-digoxigenin antibody labeled with alkaline phosphatase (Sheep Fab fragment: obtained from Boehringer) and incubated at 30° C. for 1 hour. Then, each well was washed twice with 0.05% Tween20 in PBS and once with PBS. Next, 150 μl of the Alkaline phosphatase reaction buffer (composition: 10 mM p-Nitrophenylphosphate (obtained from Vector Laboratories), 5 mM MgCl2, 100 mM NaCl, 100 mM Tris-HCl (pH 9.5)) was added in each well. The microtiter plates were incubated at 30° C. for 2 hours and the reaction was terminated by the addition of 50 μl of 1 N NaOH solution. The optical density (OD) at 405 nm of each well was measured and the percent inhibition was determined by the following expression. The percent inhibition (%)=100[1−{(C abs.−NC abs.)/(PC abs.−NC abs.)}] • C abs.; the OD of the well of the compounds • NC abs. the OD of the negative control (NC) • PC abs.: the OD of the positive control (PC)
The following Compounds (X-1 to 3) were used in order to compare an activity of the present compound with that of the compounds (X-1 to 3). Compound No. in the Table 1 is the same as compound No. of the above example.

SMILES	IC50 [µg/mL]
O=C(O)C(=O)c1c(F)ccc(COc2ccc(C=C(O)C(=O)O)nc2)c1F [Compound I-17, 3-[5-(3-Carboxyoxalyl-2,4-difluorobenzyloxy)-pyridin-2-yl]-2-hydroxy acrylic acid]	3.4

same assay, conditions: HIV-1 integrase; concentration of the compound at percent inhibition 50%; OD 405 nm; read-out: IC50 (μg/ml) (converted)

SMILES	IC50 [µM]
CCOC(=O)C(O)=Cc1ccc(OCc2ccccc2)cn1 [Compound I-2, 3-(5-Benzyloxypyridin-2-yl)-2-hydroxy acrylic acid ethyl ester]	1.77
O=C(O)C(O)=Cc1cc(CCc2ccccc2)ncn1 [Compound I-25, 3-[6-(2-Phenylethyl)pyrimidin-4-yl)-2-hydroxy acrylic acid]	0.481
O=C(O)/C(O)=C/c1ccc2ccccc2c1 [Compound X-2, reference compound]	> 467
OC(=Cc1ccc(OCc2ccccc2)cn1)c1nccs1 [Compound I-15, 2-(5-Benzyloxypyridin-2-yl)-1-thiazol-2-yl ethenol]	10.2
COc1cc(/C=C(\O)C(=O)O)ccc1OCc1ccccc1 [Compound X-1, reference compound]	> 333
O=C(O)/C(O)=C/c1ccc(OCc2ccc(C(F)(F)F)cc2)cn1 [Compound I-49, 3-[5-(4-Trifluoromethylbenzyloxy)pyridin-2-yl]-2-hydroxy acrylic acid]	16.5
O=C(O)C(O)=Cc1ccc(OCc2ccccc2)cn1 [Compound I-3, 3-(5-Benzyloxypyridin-2-yl)-2-hydroxy acrylic acid]	1.14
O=C(O)C(O)=Cc1ccc(OCc2ccc(F)cc2F)cn1 [Compound I-47, 3-[5-(2,4-Difluorobenzyloxy)pyridin-2-yl]-2-hydroxy acrylic acid]	1.63
O=C(O)/C(O)=C/c1ccc(OCC2CCCCC2)cn1 [Compound I-7, 3-[5-(Cyclohexylmethoxy)pyridin-2-yl]-2-hydroxy acrylic acid]	4.69
OC(=Cc1ccc(OCc2ccccc2)cn1)c1nc[nH]n1 [Compound I-14, 2-(5-Benzyloxypyridin-2-yl)-1-(1H-[1,2,4]triazol-3-yl) ethenol]	3.23
O=C(O)/C(O)=C/c1ccc(OCc2ccccc2)cc1 [Compound X-3, reference compound]	> 370
O=C(O)/C(O)=C/c1cnc(CCc2ccccc2)cn1 [Compound I-27, 3-[5-(2-Phenylethyl)pyradin-2-yl]-2-hydroxy acrylic acid]	2.52
O=C(O)/C(O)=C/c1nnc(CCc2ccccc2)s1 [Compound I-35, 3-[5-(2-Phenylethyl)[1,3,4]thiadiazol-2-yl)-2-hydroxy acrylic acid]	1.59
CCOC(=O)C(O)=Cc1cc(CCc2ccccc2)ncn1 [Compound I-24, 3-[6-(2-Phenylethyl)pyrimidin-4-yl)-2-hydroxy acrylic acid ethyl ester]	1.01
CC(C)CCOc1ccc(/C=C(\O)C(=O)O)nc1 [Compound I-9, 3-(5-Isopentoxypyridin-2-yl)-2-hydroxy acrylic acid]	11.5
CCOC(=O)C(O)=Cc1ccc(OCc2ccc(F)cc2F)cn1 [Compound I-46, 3-[5-(2,4-Difluorobenzyloxy)pyridin-2-yl]-2-hydroxy acrylic acid ethyl ester]	1.64

same assay, conditions: besides the compounds of the IC50 table

SMILES	inhibitory effect for HIV-1 integrase, stated in words (compound having high activity)
O/C(=C\c1cc(CCc2ccc(F)cc2)ncn1)c1ncccn1 [Compound I-109]	high activity
O=C(O)/C(O)=C/c1ncc(CCc2ccccc2)o1 [Compound I-117]	high activity
Cc1cc(/C(O)=C/c2cc(CCc3ccccc3)ncn2)no1 [Compound I-103]	high activity
O=C(O)c1ccc(/C(O)=C/c2cc(CCc3ccccc3)ncn2)nc1 [Compound I-114]	high activity
O/C(=C\c1cc(CCc2ccccc2)ncn1)c1ncccn1 [Compound I-110]	high activity
O=C(O)/C(O)=C/c1cc(C(F)Cc2ccccc2)ncn1 (stereo not shown) [Compound I-115]	high activity
O=C(O)/C(O)=C/c1ncc(CCc2ccccc2)s1 [Compound I-119]	high activity
O/C(=C\c1cc(CCc2ccccc2)ncn1)c1ccccn1 [Compound I-111]	high activity
